pEC50: −log10 of the molar value. Residues, ends and D or L forms follow the SMILES beside them. *: point of attachment. Cbz = O=C(OCc1ccccc1)*
Columns and labels:
[1] = tested on: HMGCR; assay: Immunoblotting for HMGCR in HepG2 cells; assay type: cell-based, human
Description: (§1) HeLa adenocarcinoma cells, HepG2 hepatocellular carcinoma, and Wild-type (WT) MEFs as well as Mfn1^-/^-, and Mfn2^-/- mouse embryonic fibroblasts (MEFs) were obtained from ATCC (CCL-2, HB-8065, CRL-2991, CRL-2992, and CRL-2993, respectively). eGFP-SCAP-expressing CHO Chinese hamster ovary cells were provided by Drs. J Goldstein and M Brown (U of Texas Southwestern Medical Center); WT and MFN2 KO U2OS cells were provided by Dr. Edward A Fon (McGill University, Montreal, Canada). All cell lines were cultured in complete DMEM (cDMEM: DMEM + 10% heat-inactivated FBS + 1%P/S) at 5% CO2 except for CHO cells which were cultured in DMEM/F12 media containing 5% heat-inactivated FBS. For all the experiments, cells were plated and cultivated without FBS (DMEM and 10% H20 for cell culture + 1%P/S) to promote cholesterol synthesis. Cells were tested frequently for Mycoplasma infection by PCR.
For all experiments, unless otherwise indicated, cells were plated in complete DMEM. The next day cell monolayers were rinsed 2X with 1X PBS and cultured in DMEM overnight, followed by treatments as indicated in text. Whole cells were harvested in chilled lysis buffer (50mM Hepes-KOH pH 7.4, 40mM NaCl, 2mM EDTA, 1.5mM NaVO4, 50mM NaF, 10mM NaPyrophosphate, 10mM, NaBetaGlycerophosphate (disodium salt pentahydrate), 1% Triton X-100) containing 0.25U/uL. Lysates were subsequently shaken at 1500 rpm at 37°C for 15min, centrifuged for 5 min at 1200 rpm at 4°C, and the supernatant was transferred into a fresh tube. Protein concentration was quantified using Pierce™ BCA Protein Assay Kit and after diluted with 5X SDS added to a final of 1X SDS. 10 ug of protein was applied in an SDS-PAGE gel and transferred to PVDF membranes. Membranes were blocked with PBS-0.05% Tween 20 (PBS-T) and 5% non-fat milk for 30min. Primary antibodies were incubated in PBS-T overnight. Following incubation, blots were washed three times in PBS-T and then incubated with horseradish peroxidase (HRP)-conjugated anti-mouse IgG (CST #7076) or anti-rabbit IgG (CST #7074) at a 1:10000 dilution for 60 minutes ar RT and developed using a chemiluminescence system (Pierce™ ECL Western Blotting Substrate or Pierce SuperSignal™ West Atto Ultimate Sensitivity Substrate; ThermoFisher Scientific). […]

[2] = tested on: SREBP2; assay: Immunoblotting for SREBP2 cleavage in HepG2 cells; assay type: cell-based, human; conditions: Hep G2 starved of glutamine 24h, brefeldin A 0.5 µg/ml
Experimental: (§2) Primary antibodies were incubated in PBS-T overnight.

[3] = tested on: HMGCR; assay: Immunoblotting for HMGCR in U2OS cells; assay type: cell-based, human; conditions: for rescue of HMGCR in glutamine-starved cells: U2OS w/o glutamine 24h, then treated 24h: 1mM sodium pyruvate, DON at indicated concentrations, 2 mM D-gln; for loss of HMGCR during glutamine withdrawal: U2OS gln-, αKG 1 mM (24h), ISRIB 200nM (8h)
Experimental: Cells were tested frequently for Mycoplasma infection by PCR.
as §2

[4] = tested on: ATF4; assay: Immunoblotting for ATF4 (integrated stress response) in U2OS cells; assay type: cell-based, human; conditions: U2OS ± gln, ISRIB 200nM, 8h
Experimental: as §2

[5] = molecular target: GLUL (Homo sapiens, UniProt P15104); conditions: HepG2, 500 µM MSX for 8h; immunoblot
Chain of GLUL (P15104 whole entry): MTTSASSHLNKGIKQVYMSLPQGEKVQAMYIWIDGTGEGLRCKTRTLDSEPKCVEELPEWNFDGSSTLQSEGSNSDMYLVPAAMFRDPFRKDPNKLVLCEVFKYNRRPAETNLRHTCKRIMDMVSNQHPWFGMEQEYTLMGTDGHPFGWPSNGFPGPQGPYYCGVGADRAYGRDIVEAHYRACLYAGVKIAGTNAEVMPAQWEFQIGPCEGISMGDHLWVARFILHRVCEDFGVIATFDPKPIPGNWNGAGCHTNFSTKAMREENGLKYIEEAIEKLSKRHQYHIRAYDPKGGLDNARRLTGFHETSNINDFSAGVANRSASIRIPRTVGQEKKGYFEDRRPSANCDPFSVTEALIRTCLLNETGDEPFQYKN
Description: as §1
For all experiments, unless otherwise indicated, cells were plated in complete DMEM. The next day cell monolayers were rinsed 2X with 1X PBS and cultured in DMEM overnight, followed by treatments as indicated in text. […] Protein concentration was quantified using Pierce™ BCA Protein Assay Kit and after diluted with 5X SDS added to a final of 1X SDS. […]

[6] = tested on: U2OS cells; conditions: U2OS cultured 24h w/o gln, supplemented 24h with 10 mM 15NH4Cl
Experimental: (§4) 2 × 10^5 cells were plated in complete DMEM in 6 wells plates. The following day, cells were rinsed 2X with 1X PBS and cultured in DMEM. Treatments were started the following day as indicated in the text in 6 wells plates containing. For glucose-related isotope-labeling experiments, D-Glucose-^13C6 (Sigma #389374-1G) was administed at 25mM in 1 ml of glutamine-free DMEM. […] After the indicated treatments cells were washed twice with 75mM of ammonium carbonate pH =7.4 and the plates were frozen in liquid nitrogen and stored at -80°C until metabolite extraction. For metabolite extraction, 60% MeOH containing internal standards buffer was added to each well of the frozen plate. […]
(§5) The LC-HRMS analysis of amine-containing compounds was performed using a QE-Plus high-resolution mass spectrometer coupled to a Vanquish UHPLC chromatography system (Thermo Fisher Scientific). […] The identity of each compound was validated by authentic reference compounds, which were measured at the beginning and the end of the sequence. For data analysis the area of the protonated [M + nBz + H]+ (nBz stands for the number of benzoyl moieties attached to each compound) isotopologue mass peaks of every required compound were extracted and integrated using a mass accuracy <3 ppm and a retention time (RT) tolerance of <0.05 min as compared to the independently measured reference compounds. […]

[7] = tested on: HepG2 cells; conditions: HepG2 cultured 24h w/o gln, supplemented 24h with 10 mM 15NH4Cl
Experimental: as §4, §5

[8] = tested on: eGFP-SCAP; assay: Immunofluorescence assay of eGFP-SCAP localization relative to the Golgi in CHO cells; assay type: cell-based, Chinese hamster; conditions: CHO w/o gln 24h
Experimental: For immunofluorescence (IF) analysis of eGFP-SCAP-expressing CHOs, .25 × 10^4 cells were plated in a 24-well glass-bottom sensoplate, starved of glutamine for 24h, and incubated with methionine sulfoximine at 0.5 mM with either no glutamine, 2 mM glutamine, or 1mM a-ketoglutarate. […] Following 3X rinses in 1X PBS, images were taken using an Olympus IXplore SpinSR spinning disk confocal microscope.

[9] = tested on: p70 phospho-S6K (pS6K); assay: Immunoblotting for phospho-S6K (mTORC1 activity) in U2OS cells; assay type: cell-based, human; conditions: U2OS gln-, αKG 1 mM
Experimental: (§6) For all experiments, unless otherwise indicated, cells were plated in complete DMEM. The next day cell monolayers were rinsed 2X with 1X PBS and cultured in DMEM overnight, followed by treatments as indicated in text. […] Lysates were subsequently shaken at 1500 rpm at 37°C for 15min, centrifuged for 5 min at 1200 rpm at 4°C, and the supernatant was transferred into a fresh tube. Protein concentration was quantified using Pierce™ BCA Protein Assay Kit and after diluted with 5X SDS added to a final of 1X SDS. 10 ug of protein was applied in an SDS-PAGE gel and transferred to PVDF membranes. Membranes were blocked with PBS-0.05% Tween 20 (PBS-T) and 5% non-fat milk for 30min. Primary antibodies were incubated in PBS-T overnight.

[10] = tested on: SREBP2; assay: Immunoblotting for precursor and mature SREBP2 in U2OS cells; assay type: cell-based, human; conditions: U2OS starved of glutamine 8h ± αKG 1 mM
Experimental: as §6

[11] = tested on: U2OS cells; assay: 13C6-glucose isotope labeling and metabolomics (AEX-MS) of TCA metabolites in U2OS cells; assay type: cell-based, human; conditions: U2OS 24h, gln-, 1 mM αKG
Experimental: (§3) 2 × 10^5 cells were plated in complete DMEM in 6 wells plates. The following day, cells were rinsed 2X with 1X PBS and cultured in DMEM. Treatments were started the following day as indicated in the text in 6 wells plates containing. For glucose-related isotope-labeling experiments, D-Glucose-^13C6 (Sigma #389374-1G) was administed at 25mM in 1 ml of glutamine-free DMEM. For ammonia-related isotope-labeling experiments, ammonium label experiments Ammonium-^15N chloride (Sigma #299251-250MG) at 10mM. After the indicated treatments cells were washed twice with 75mM of ammonium carbonate pH =7.4 and the plates were frozen in liquid nitrogen and stored at -80°C until metabolite extraction. For metabolite extraction, 60% MeOH containing internal standards buffer was added to each well of the frozen plate. The cells were then scraped, transferred to a new tube containing MTBE and EquiSPLASH™ LIPIDOMIX® (Avanti 330731-1EA), and incubated for 30 min at 1500 rpm at 4°C. The samples were centrifuged for 10 min at 21.000xg at 4°C. The supernatants were then collected in a new tube with LCMS-grade H2O, incubated for 10 min at 1500 rpm at 15°C, and further centrifuged for 5 min at 16.000xg at 15°C to obtain a clear phase separation. The upper phase (apolar metabolites) and the down phase (polar metabolites) were collected in different tubes. After, the metabolite extracts were dried down in speed vac and stored at -80°C until further analysis by LC-HRS-MS as described further.

[12] = tested on: U2OS cells; assay: UPLC-HRMS-based measurement of 13C-cholesterol in U2OS cells; assay type: cell-based, human; conditions: U2OS 24h, 25 mM 13C6-glucose, gln-, 1 mM αKG
Experimental: as §3, with “After, the metabolite extracts were dried down in speed vac and stored at -80°C until further analysis by LC-HRS-MS as described further.” left out

[13] = tested on: FDFT1; assay: Immunoblotting for FDFT1 in U2OS cells; assay type: cell-based, human; conditions: U2OS starved of glutamine 8 hours, αKG 1 mM
Experimental: as §6

[14] = tested on: ATF6; assay: Immunoblotting for ATF6 cleavage in U2OS cells; assay type: cell-based, human; conditions: U2OS w/o glutamine 24h, then 8 hours ± 2 mM gln, 15 µg/ml tunicamycin
Experimental: as §2

C[C@H]1CCC/C=C/[C@@H]2C[C@H](O)C[C@H]2[C@H](O)/C=C/C(=O)O1 [BFA, brefeldin A]
HMGCR ([1]; Hep G2 starved of glutamine 24h, brefeldin A 0.5 µg/ml): rescue SREBP2 cleavage and HMGCR in glutamine-starved cells to levels similar to those in glutamine-fed cells
SREBP2 cleavage [2]: rescue SREBP2 cleavage and HMGCR in glutamine-starved cells to levels similar to those in glutamine-fed cells

O=C(Cc1ccccc1)Nc1nnc(CCSCCc2nnc(NC(=O)Cc3ccccc3)s2)s1 [BPTES, bis-2-(5-phenylacetamido-1,3,4-thiadiazol-2-yl)ethylsulfide]
HMGCR levels in glutamine-replete conditions ([3]; U2OS 8h, 30µM BPTES, 2 mM gln, 1 mM αKG): did not reduce HMGCR levels

NC(=O)CC[C@@H](N)C(=O)O [D-glutamine]
rescue of HMGCR in glutamine-starved cells [3]: do not rescue HMGCR in glutamine-starved cells

[N-]=[N+]=CC(=O)CC[C@H](N)C(=O)O [DON, 6-diazo-5-oxo-L-norleucine]
rescue of HMGCR in glutamine-starved cells [3]: do not rescue HMGCR in glutamine-starved cells

O=C(COc1ccc(Cl)cc1)NC1CCC(NC(=O)COc2ccc(Cl)cc2)CC1 (centres unmarked) [ISRIB]
loss of HMGCR during glutamine withdrawal [3]: neither treatment prevented the loss of HMGCR during glutamine withdrawal
activation of ISR effector ATF4 [4]: blocked the activation of the key ISR effector ATF4

CC(C)C[C@@H](C=O)NC(=O)[C@H](CC(C)C)NC(=O)[C@H](CC(C)C)NC(=O)OCc1ccccc1 [MG-132] (Cbz-Leu-Leu-Leu-aldehyde)
depletion of HMGCR following glutamine withdrawal ([3]; U2OS ± glutamine, MG-132 10 µM, 8h): did not prevent the depletion of HMGCR following glutamine withdrawal

CS(=N)(=O)CCC(N)C(=O)O (centres unmarked) [MSX, 2-amino-4-(S-methylsulfonimidosyl) butanoic acid]
HMGCR during glutamine starvation ([1]; HepG2 starved of gln 24h, then w/out gln ± 500 µM MSX for 8h, immunoblot): further decreased HMGCR during glutamine starvation
ammonium chloride-induced increase in HMGCR ([1]; HepG2 starved of gln 24h, then w/out gln, 10 mM NH4Cl ± 500 µM MSX for 8h, immunoblot): prevented the ammonium chloride-induced increase in HMGCR
migration pattern of GLUL [5]: led to a shift in the migration pattern of GLUL

Cl.N [^15N-ammonia, Ammonium-^15N chloride]
15N-labelled glutamine of total glutamine [6]: less than 2%
15N-labelled glutamine of total glutamine [7]: majority
increase of total glutamine pool [7]: > two-fold

Cl.N [ammonia, ammonium chloride]
HMGCR following ammonia treatment ([1]; HepG2 starved of glutamine 24h, then 24 h w/o gln ± 10 mM 15NH4Cl): increased following ammonia treatment
glutamine and HMGCR following ammonia treatment ([3]; U2OS starved of glutamine 24h, then 24 h w/o gln ± 10 mM 15NH4Cl): neither glutamine nor HMGCR increased following ammonia treatment

NC(=O)CC[C@H](N)C(=O)O [glutamine]
pEC50 ([3]; Homo sapiens, U2OS w/o gln 24h, refed gln 8h, immunoblot, read-out: half-maximal effects of glutamine on HMGCR induction): 3.30 to 3.60
glutamine concentration sufficient to induce HMGCR ([3]; U2OS w/o gln 24h, refed gln 8h): 0.125 mM
Percentage of cells with Golgi-localized eGFP-SCAP ([8]; then gln 2 mM with MSX 500 µM): > 75%

CC(=O)C(=O)[O-].[Na+] [pyruvate, sodium pyruvate]
rescue of HMGCR in glutamine-starved cells [3]: do not rescue HMGCR in glutamine-starved cells

O=C(O)CCC(=O)C(=O)O [αKG, alpha-ketoglutarate]
loss of HMGCR during glutamine withdrawal [3]: neither treatment prevented the loss of HMGCR during glutamine withdrawal
HMGCR protein level ([3]; U2OS starved of glutamine 8 hours, αKG 1 mM): decreased in cells starved of glutamine for 8 hours, despite αKG supplementation
mTORC1 phosphorylation of S6 kinase (S6K1) [9]: restored mTORC1 phosphorylation of its target ribosomal protein S6 kinase (S6K1)
processing of SREBP2 (precursor and mature forms) [10]: inhibited the processing of SREBP2 with or without αKG
localization of GFP-SCAP ([8]; then gln- ± αKG 1 mM with MSX 500 µM): retained GFP-SCAP in the ER
m+2 and m+6 citrate pools ([11]; 25 mM 13C6-glucose): sufficient to restore m+2 and m+6 citrate pools to those of gln+ cells
m+4 malate and succinate ([11]; 25 mM 13C6-glucose): blunted the increase in m+4 malate and succinate caused by glutamine starvation
levels of TCA-intermediates (total pool size) [11]: partly rescued levels of TCA-intermediates
13C-incorporation into cholesterol [12]: did not, however, rescue the >5-fold decrease in ^13C-incorporation into cholesterol
FDFT1 protein level [13]: decreased in cells starved of glutamine for 8 hours, despite αKG supplementation

tunicamycin
ATF6 cleavage [14]: similarly drove ATF6 cleavage in glutamine-fed or starved cells

uridine diphosphate N-acetylglucosamine [UDP-GlcNAc]
rescue of HMGCR levels during glutamine starvation by supplements ([3]; U2OS w/o gln 8 hours, NEAA 100 µM, nucleosides, glucosamine 1 mM, ± αKG 1mM): did not rescue HMGCR levels during glutamine starvation

From patent EP4459280A1, “SCREENING AND USES OF GLUTATHIONE SYNTHETASE MODULATORS” (Max-Planck-Gesellschaft zur Förderung der Wissenschaften …, priority 2023, dated 2024)
